Results from PMC9929232, “On-demand male contraception via acute inhibition of soluble adenylyl cyclase” (Nature Communications, 2023).
“And” between values parts separate entries of the source, which are not always exact repeats. Identical values can stand only once. “Also recorded” adds a separate entry of the source.

How the values were obtained:
[1] = Solubility; assay type: physicochemical; settings: unsuitable for chronic delivery to mice
[2] = test system: ion channels, GPCRs, kinases, and nuclear receptors; settings: cited from earlier work
[3] = Pharmacokinetic analysis of TDI-11861 in blood and tissues (LC-MS); assay type: in vivo, mouse; settings: i.p.; including cauda epididymis, excluding testis
Method: At defined time points (15 min to 24 hours post-injection), 10 μl tail blood was progressively collected from the same males, mixed with 20 μl 15 mM EDTA, frozen in liquid nitrogen, and stored at −80 °C until analysis. Liver, kidney, eye, testis, caput and cauda epididymis, and seminal vesicle were collected, weighed, and homogenized in a threefold volume of 1:1 EtOH/H2O (v/v). […] Mice anesthetized with ketamine/xylazine were shaved and residual hair was removed with hair removal cream. A small incision was made with a scalpel, a hemostat was used to create a pump-size pocket under the skin, and the pump was inserted with the pump opening facing away from the incision. After the wound was closed, mice were treated with meloxicam for pain relief. For 7 or 42 days post-surgery, tail blood was collected at regular intervals.

[4] = as above; assay type: in vivo, mouse; settings: oral, 1 and 3 hours; caput and cauda epididymis, seminal vesicles, not testis
[5] = test system: tmACs from each subfamily; settings: cited from earlier work
[6] = test system: hERG; settings: cited from earlier work
[7] = test system: mice; assay type: in vivo; settings: for at least 24 hours
[8] = test system: fertility of male mice; assay: Timed mouse mating (contraceptive efficacy); assay type: in vivo; settings: for Contraceptive efficacy: vs vehicle
Method: Single-housed naive (i.e., uninjected and virgin) male and female C57Bl/6 mice were acclimatized to a reverse light cycle (dark: 11 AM to 11 PM) for at least 2 weeks. […] Pregnancy and litter size was assessed in two ways. Either female were sacrificed 7 days following mating and implanted embryos counted, or females were permitted to go to term (21 days) and pups counted. A subset of the pups (both male and female) born from breakthrough pregnancies were permitted to mature and their fertility was assessed in standard matings.

[9] = test system: over 310 kinases; settings: cited from earlier work
[10] = test system: ejaculated uterine mouse sperm; assay: cAMP in ejaculated uterine mouse sperm from injected males; assay type: in vivo
Method: (§1) For analysis of ejaculated uterine mouse sperm, the uteri of females with mating plugs were removed and placed into 1 ml TYH buffer.

[11] = test system: ejaculated uterine mouse sperm; assay: Motility (CASA) of ejaculated uterine mouse sperm from injected males; assay type: in vivo; set-up: hyperactivated motility (%): concentration or dose not given beside the values
Method: as §1
For ex vivo assessment of mouse sperm from inhibitor-treated mice, sperm (25 µl) isolated at the indicated time points (15 min to 24 hours post-injection) diluted 1:5 in non-capacitating TYH buffer were loaded on a […] Leja slide (Hamilton Thorne) and placed on a microscope stage at 37 °C. Sperm movements of 10 fields of at least 200 sperm were examined using computer-assisted sperm analysis (CASA) via Hamilton–Thorne digital image analyzer (IVOS II, Hamilton Thorne Research, Beverly, MA) with the following parameters: 30 frames, frame rate: 60 Hz, cell size: 30–170 μm^2. Ejaculated uterine mouse sperm were recorded without additional dilution. Sperm were considered motile when presenting STR ≥80% and VAP ≥50 μm/s and hyperactivated when presenting VCL ≥270 μm/s, LIN < 50%, and ALH ≥7 μm. Track´s color code: motile (green), progressive (turquoise), hyperactivated (purple), slow (pink), static (red), not counted due to late entry (yellow).

[12] = cited from earlier work
[13] = target: T1, sAC-overexpressing rat 4-4 cells (Rattus norvegicus, UniProt Q9Z286); assay: Cellular cAMP accumulation in sAC-overexpressing 4-4 cells;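 on cAMP accumulated (%): percent of DMSO-treated control cAMP accumulation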; assay type: cell-based; set-up: cAMP accumulated: unit not given here; settings: for cAMP accumulated (%): Fig. 1d normalized replicates; for cAMP accumulated: Fig. 1d replicates
T1 construct: expressed in transfected cells
T1 sequence (Q9Z286 1-469 limits assumed): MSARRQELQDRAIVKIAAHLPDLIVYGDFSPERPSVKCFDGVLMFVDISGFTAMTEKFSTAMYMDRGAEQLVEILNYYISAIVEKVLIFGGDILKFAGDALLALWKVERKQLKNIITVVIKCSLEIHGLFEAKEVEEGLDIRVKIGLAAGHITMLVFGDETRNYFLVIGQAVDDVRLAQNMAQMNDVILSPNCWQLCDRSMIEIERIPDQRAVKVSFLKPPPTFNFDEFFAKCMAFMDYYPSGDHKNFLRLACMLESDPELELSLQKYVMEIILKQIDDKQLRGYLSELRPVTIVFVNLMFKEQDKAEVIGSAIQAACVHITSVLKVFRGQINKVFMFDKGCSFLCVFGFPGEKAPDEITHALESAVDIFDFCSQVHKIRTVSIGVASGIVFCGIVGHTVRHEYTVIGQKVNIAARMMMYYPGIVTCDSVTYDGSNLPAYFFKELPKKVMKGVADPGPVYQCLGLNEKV
Method: sAC-overexpressing rat 4-4 cells were generated and functionally authenticated in our laboratory as previously described[33] and grown in DMEM + 10% FBS. Cells were maintained at 37 °C in 5% CO2 and were periodically checked for mycoplasma contamination.
To assess potency in a cellular system, we utilized 4-4 cells, which stably overexpress sAC[20],[33],[56]. Cellular levels of cAMP reflect a balance between its synthesis by adenylyl cyclases and its degradation by phosphodiesterases (PDEs). […] On the day prior to the assay, 5 × 10^6 cells/ml were seeded in 24-well plates in DMEM with 10% FBS. To measure sAC-dependent cAMP accumulation, cells were pretreated for 10 min with the respective inhibitor at the indicated concentrations or DMSO as control in 300 µl fresh media. Cyclic AMP accumulation was initiated by the addition of 500 µM IBMX, and after 5 min, the media was removed, and the cells were lysed with 250 µl 0.1 M HCl by shaking at 700 rpm for 10 min.

[14] = 50 mg/kg i.p., mating period 0.5–2.5 hours, 2 hours
[15] = 50 mg/kg i.p., mating period 1–9 hours, 8 hours
[16] = Fig. 4a replicates, ejaculated uterine sperm, 2 hours after 50 mg/kg i.p.

Nc1nc(Cl)cc(-c2nn(C(F)F)cc2Cc2ccccc2OCCN2CCOC[C@@H]2CO)n1 [TDI-11861]
solubility [1]: limited solubility | activity versus 46-member safety panel [2]: no significant activity | levels in tissues versus blood [3]: correlated well with levels in blood | levels in tissues versus blood [4]: correlated well with its concentration in blood | activity against tmACs [5]: no activity | activity in hERG electrophysiology studies [6]: no significant activity | abnormal mouse behavior after single oral dose [7]: did not cause any abnormal mouse behavior | mating behavior and mating frequency versus vehicle-injected males ([8]; 50 mg/kg i.p.): same frequency as vehicle-injected males; also recorded: indistinguishable | Pregnancy rate ([8]; 50 mg/kg i.p., mating period 0.5–2.5 hours post injection, mating time 2 hours): 0% | Pregnancy pairings (pregnancies/pairings) [8, 14]: zero females became pregnant in 52 pairings; also recorded: (0/52) | Contraceptive efficacy [8, 14]: 100% | Contraceptive efficacy ([8]; 50 mg/kg i.p., mating period 0.5–[…], 3 hours): 91% | Pregnancy rate ([8]; 50 mg/kg i.p., mating period 0.5–[…], mating time 3 hours): 2.2% | Pregnancy pairings (pregnancies/pairings) [8, 15]: 5 pregnancies out of 55 and (5/55) | Contraceptive efficacy [8, 15]: 78% | Pregnancy rate ([8]; 50 mg/kg i.p., mating period 1–9 hours, mating time 8 hours): 9.1% | Pregnancy pairings (pregnancies/pairings) ([8]; 50 mg/kg i.p., mating period 24–120 hours, 96 hours): (13/15) | Pregnancy rate ([8]; 50 mg/kg i.p., mating period 24–120 hours, mating time 96 hours (recovery)): 87% | health of F1 progeny from breakthrough pregnancies ([8]; male and female F1): matured normally into fertile adults | activity against over 310 kinases [9]: no significant activity | bicarbonate-induced cAMP in ejaculated sperm ([10]; 50 mg/kg i.p., retrieved from uterus): no bicarbonate-induced increase in cAMP | cAMP, capacitating media [10, 16]: 0.692 pmol/10^6 sperm and 0.283 pmol/10^6 sperm and 0.5995 pmol/10^6 sperm and 0.72 pmol/10^6 sperm and 1.204 pmol/10^6 sperm and 0.492 pmol/10^6 sperm and 0.468 pmol/10^6 sperm and 0.24 pmol/10^6 sperm | cAMP, non-capacitating media [10, 16]: 0.738 pmol/10^6 sperm and 1.2045 pmol/10^6 sperm and 0.9637 pmol/10^6 sperm and 0.847 pmol/10^6 sperm and 1.232 pmol/10^6 sperm and 0.679 pmol/10^6 sperm and 0.436 pmol/10^6 sperm and 0.514 pmol/10^6 sperm | motility of ejaculated sperm ([11]; 50 mg/kg i.p., retrieved from uterus post-coitus): immotile | progressive motility (%) ([11]; Fig. 4b, ejaculated sperm): 4.7% and 5.3% and 8.9% and 7% and 4% and 4.75% and 3.2% | hyperactivated motility (%) ([11]; Fig. 4c, ejaculated sperm): 1.4% and 0.8% and 0.5% and 0.9% and 1.1% | DEREK analysis for mutagenicity risks [12]: no significant activity

Cc1c(Cc2ccccc2)c(-c2cc(Cl)nc(N)n2)nn1C [TDI-10229, reference compound]
cAMP accumulated (%) ([13]; printed 0): 3.303% and 10.629% and 8.51% and 2.193% and 5.92% and 3.107% and 22.11% and 16.4972% and 11.8328% and 5.524% and 4.206% and 1.889% and 2.077% | cAMP accumulated (%) ([13]; printed 0.477121): 0% | cAMP accumulated (%) ([13]; printed -0.52288): 40.0361% and 25.5301% and 16.8792% and 12.1343% and 19.6251% and 46.0455% and 19.6826% and 32.1271% and 49.6122% and 23.5829% and 24.3244% and 21.4812% and 12.9118% | cAMP accumulated (%) ([13]; printed -1): 53.928% and 46.3142% and 43.7516% and 31.429% and 23.6328% and 79.7321% and 41.9299% and 71.9606% and 102.407% and 49.6166% and 29.8946% and 34.6849% and 30.4462% | cAMP accumulated (%) ([13]; printed -1.47712): 63.9701% and 48.7859% and 51.356% and 54.7326% and 51.5128% and 120.896% and 78.187% and 107.566% and 161.903% and 63.1342% | cAMP accumulated ([13]; concentration (uM) -1.95424 [sic]): 47.248 and 20.896 and 22.932 and 53.28 and 23.028 and 39.526 and 63.525 and 88.135 and 120.985 and 194.007 and 68.902 and 22.685 | cAMP accumulated ([13]; concentration (uM) -2.43136 [sic]): 48.561 and 22.294 and 31.915 and 66.057 and 37.215 and 54.337 and 58.571 and 46.103 and 61.044 and 66.819 and 131.064 and 78.712 and 23.002 | cAMP accumulated ([13]; concentration (uM) -2.90848 [sic]): 49.13 and 27.611 and 32.179 and 77.343 and 38.522 and 35.67 and 62.766 and 41.76 and 54.941 and 113.858 and 170.305 and 78.712 and 23.104
